6 compounds from patent US10538555B2, “Macrocyclic inhibitors of the PD-1/PD-L1 and CD80(B7-1)/PD-L1 protein/protein interactions” (BRISTOL-MYERS SQUIBB COMPANY, priority 2014, dated 2020) can be followed below.

Where a SMILES comes first, the peptide text is derived from it. Bridges are numbered along the chain shown (N, C = ends). [ ]: non-standard residue; d: D form. ξ: configuration not given here. Trp(1-CH2COOH) = N[C@@H](Cc1cn(CC(=O)O)c2ccccc12)C(=O)O; NMeW = CN[C@@H](Cc1c[nH]c2ccccc12)C(=O)O; Hyp = O=C(O)[C@@H]1C[C@@H](O)CN1; NMeNle = CCCC[C@H](NC)C(=O)O; NMeA = CN[C@@H](C)C(=O)O; Dab = NCC[C@H](N)C(=O)O; Dap = NC[C@H](N)C(=O)O; ξP = O=C(O)C1CCCN1

The test deals with T1, Human PD-L1/PD-1 (Homo sapiens, UniProt Q9NZQ7).
T1 construct: TVMV protease cleavage site (C); made in house; host or cells: HEK293T cells
The test can be described thus: HTRF Human PD-L1/PD-1 binding assay (PD-1-Ig/PD-L1-His). Particulars: PD-L1-His 10 nM, PD-1-Ig 20 nM; class symbol; read-out: HTRF Human PD-L1/PD-1 Binding Assay IC50 Range. Summed up: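 Step 1: compound with PD-L1-His (10 nM final), 15 min. Step 2: PD-1-Ig (20 nM final), 15 min. Step 3: Eu-cryptate anti-Ig (1 nM) plus APC anti-His (20 nM), 30 min equilibration. Signal taken as 665 nm/620 nm ratio.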
For orientation: TR-FRET usually uses a lanthanide donor and a delayed reading to cut background.

T1 sequence (Q9NZQ7 with tags, fused parts or gaps): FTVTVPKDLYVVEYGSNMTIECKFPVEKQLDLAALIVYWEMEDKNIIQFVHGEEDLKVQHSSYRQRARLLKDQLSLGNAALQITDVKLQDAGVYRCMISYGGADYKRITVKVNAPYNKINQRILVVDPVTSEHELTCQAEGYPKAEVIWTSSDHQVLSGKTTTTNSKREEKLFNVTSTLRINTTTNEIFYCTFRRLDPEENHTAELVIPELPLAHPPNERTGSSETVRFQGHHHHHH

With `CCCC[C@H]1C(=O)N[C@@H](CC(C)C)C(=O)N[C@H](C(=O)NCC(N)=O)CSCC(=O)N[C@@H](Cc2ccc(O)cc2)C(=O)N(C)[C@@H](C)C(=O)N[C@@H](CC(N)=O)C(=O)N2CCCC2C(=O)N[C@@H](CN)C(=O)N[C@@H](CC(C)C)C(=O)N2C[C@H](O)C[C@H]2C(=O)N[C@@H](Cc2c[nH]c3ccccc23)C(=O)N[C@@H](CCN)C(=O)N(C)[C@@H](Cc2c[nH]c3ccccc23)C(=O)N(C)[C@@H](CCCC)C(=O)N1C` (stereo partly drawn) [Example 5265] ({CH2CO}-Y[NMeA]N[ξP][Dap]L[Hyp]W[Dab][NMeW][NMeNle][NMeNle]LCG-NH2; thioether N-14), the IC50 lay within 10 to 99.9 nM.

`CCCC[C@H]1C(=O)N(C)[C@@H](CCCC)C(=O)N[C@@H](CC(C)C)C(=O)N[C@H](C(=O)NCC(N)=O)CSCC(=O)N[C@@H](Cc2ccc(O)cc2)C(=O)N(C)[C@@H](C)C(=O)N[C@@H](CC(N)=O)C(=O)N2CCC[C@H]2C(=O)N[C@@H](CC(N)=O)C(=O)N[C@@H](CCC(N)=O)C(=O)N2C[C@H](O)C[C@H]2C(=O)N[C@@H](Cc2c[nH]c3ccccc23)C(=O)N[C@@H](CCN)C(=O)N[C@@H](Cc2cn(CC(=O)O)c3ccccc23)C(=O)N1C` [Example 6118] ({CH2CO}-Y[NMeA]NPNQ[Hyp]W[Dab][Trp(1-CH2COOH)][NMeNle][NMeNle]LCG-NH2; thioether N-14): the IC50 lay within 1 to 9.9 nM.

As to `CCCC[C@H]1C(=O)N(C)[C@@H](CCCC)C(=O)N[C@@H](CCN)C(=O)N[C@H](C(=O)NCC(N)=O)CSCC(=O)N[C@@H](Cc2ccc(O)cc2)C(=O)N(C)[C@@H](C)C(=O)N[C@@H](CC(N)=O)C(=O)N2CCC[C@H]2C(=O)N[C@@H](CN)C(=O)N[C@@H](CCC(N)=O)C(=O)N2C[C@H](O)C[C@H]2C(=O)N[C@@H](Cc2c[nH]c3ccccc23)C(=O)N[C@@H](CO)C(=O)N[C@@H](Cc2cn(CC(=O)O)c3ccccc23)C(=O)N1C` [Example 6119] ({CH2CO}-Y[NMeA]NP[Dap]Q[Hyp]WS[Trp(1-CH2COOH)][NMeNle][NMeNle][Dab]CG-NH2; thioether N-14), the IC50 was 1 to 9.9 nM.

As to `CCCC[C@H]1C(=O)N(C)[C@@H](CCCC)C(=O)N[C@@H](CCC(=O)O)C(=O)N[C@H](C(=O)NCC(N)=O)CSCC(=O)N[C@@H](Cc2ccc(O)cc2)C(=O)N(C)[C@@H](C)C(=O)N[C@@H](CC(N)=O)C(=O)N2CCC[C@H]2C(=O)N[C@@H](Cc2cnc[nH]2)C(=O)N[C@@H](CCC(=O)O)C(=O)N2C[C@H](O)C[C@H]2C(=O)N[C@@H](Cc2c[nH]c3ccccc23)C(=O)N[C@@H](CCN)C(=O)N[C@@H](Cc2cn(CC(=O)O)c3ccccc23)C(=O)N1C` [Example 6134] ({CH2CO}-Y[NMeA]NPHE[Hyp]W[Dab][Trp(1-CH2COOH)][NMeNle][NMeNle]ECG-NH2; thioether N-14), the IC50 was in the range of 1 to 9.9 nM.

Consider `CCCC[C@H]1C(=O)N(C)[C@@H](CCCC)C(=O)N[C@@H](CCC(=O)O)C(=O)N[C@H](C(=O)NCC(N)=O)CSCC(=O)N[C@@H](Cc2ccc(O)cc2)C(=O)N(C)[C@@H](C)C(=O)N[C@@H](CC(=O)O)C(=O)N2CCC[C@H]2C(=O)N[C@@H](CO)C(=O)N[C@@H](CC(C)C)C(=O)N2C[C@H](O)C[C@H]2C(=O)N[C@@H](Cc2c[nH]c3ccccc23)C(=O)N[C@@H](CCN)C(=O)N[C@@H](Cc2cn(CC(=O)O)c3ccccc23)C(=O)N1C` [Example 6135] ({CH2CO}-Y[NMeA]DPSL[Hyp]W[Dab][Trp(1-CH2COOH)][NMeNle][NMeNle]ECG-NH2; thioether N-14), for which the IC50 is 1 to 9.9 nM.

For the compound `CCCC[C@H]1C(=O)N(C)[C@@H](CCCC)C(=O)N[C@@H](CCC(=O)O)C(=O)N[C@H](C(=O)NCC(N)=O)CSCC(=O)N[C@@H](Cc2ccc(O)cc2)C(=O)N(C)[C@@H](C)C(=O)N[C@@H](CC(N)=O)C(=O)N2CCC[C@H]2C(=O)N[C@@H](CO)C(=O)N[C@@H](CC(C)C)C(=O)N2C[C@H](O)C[C@H]2C(=O)N[C@@H](Cc2c[nH]c3ccccc23)C(=O)N[C@@H](CCN)C(=O)N[C@@H](Cc2cn(CC(=O)O)c3ccccc23)C(=O)N1C` [Example 6136] ({CH2CO}-Y[NMeA]NPSL[Hyp]W[Dab][Trp(1-CH2COOH)][NMeNle][NMeNle]ECG-NH2; thioether N-14), the IC50 lay in the range of 10 to 99.9 nM.
